The source of these data is patent US20070270350A1, “Methods and Compositions for the Prevention and Treatment of Inflammatory Diseases or Conditions” (MUSC FOUNDATION FOR RESEARCH DEVELOPMENT, priority 2003, published 2007).

Data set [1] relates to iNOS. In words: LPS/IFN-induced NO production and iNOS gene expression in primary astrocytes. Format: cell-based, rat. As to conditions: for effect on D-PDMP mediated inhibition of NO production: glycosphingolipid 5 and 10 μM added with D-PDMP 50 μM, 0.5 hr before LPS/IFN.
Data set [2] has as its system KA-treated rats. In words: KA-induced seizure model (epilepsy model), rat hippocampus. Particulars: 3 days after KA. Format: in vivo. The protocol: FIG. 45. Experimental design for the use of statins as a therapeutic for kinic acid induced seizures (epilepsy model).
FIG. 46. […] The rats were orally pre-treated (7 days before) with atorvastatin (LP; 10 mg/kg) prior to KA (10 mg/kg, i.p.). At 3 days after KA injection, neuronal cell death in hippocampus was examined using cresyl violet stain.
FIG. 47. […] The rats were orally pre-treated (7 days before) with atorvastatin (LP; 10 mg/kg) prior to KA (10 mg/kg, i.p.). At 3 days after KA injection, infiltration of macrophages in the CA1 and CA3 regions of the hippocampus was examined using immunofluorescent labeling against for ED-1, as a marker of monocytes.
The rats were orally pre-treated (7 days before) with atorvastatin (LP; 10 mg/kg) prior to KA (10 mg/kg, i.p.). At 3 days after KA injection, neuronal cell death in the CA1 (A) and CA3 (B) regions of the hippocampus was examined using TUNNEL assay.
FIG. 49. […] The rats were orally pre-treated (7 days before) with lovastatin (Lov; 10 mg/kg) prior to KA (10 mg/kg, i.p.). At 3 days after KA injection, neuronal cell death in hippocampus was examined using cresyl violet stain.
FIG. 50A-C. […] The rats were orally pre-treated (7 days before) with atorvastatin (LP; 10 mg/kg) prior to KA (10 mg/kg, i.p.). At 3 days after KA injection, the expression of inflammatory genes (TNF-α, IL-1β, and iNOS) in hippocampus using real time PCR. The expression of each gene was normalized with GAPDH expression.
FIG. 51A-C. […] The rats were orally pre-treated (7 days before) with lovastatin (Lov; 10 mg/kg) prior to KA (10 mg/kg, i.p.). At 3 days after KA injection, the expression of inflammatory genes (TNF-α, IL-1β, and iNOS) in hippocampus using real time PCR. The expression of each gene was normalized with GAPDH expression.
Seizure index: stage 1, facial clonus; stage 2, nodding; stage 3, forelimb clonus; stage 4, forelimb clonus with rearing; stage 5, rearing, jumping, and falling. The rats were orally pre-treated (7 days before) with lovastatin or atorvastatin (Lov or LP; 10 mg/kg) prior to KA (10 mg/kg, i.p.).

Data set [3] deals with Macrophages. As to conditions: 10 μM lovastatin or 5 mM NaPA 8 h, LPS 1.0 μg/ml, 24 h.
The subject of data set [4] is Microglia. As to conditions: 10 μM lovastatin or 5 mM NaPA 8 h, LPS 1.0 μg/ml, 24 h.
Data set [5] deals with Rat Primary Astrrocytes. As to conditions: LPS 1.0 μg/ml, 24 h.
The subject of data set [6] is iNOS. In words: LPS/IFN-induced NO production and iNOS expression in C6 glioma cells. Format: cell-based, rat. Particulars: exogenous glycosphingolipid with D-PDMP. The protocol: C6 rat glioma cells obtained from ATCC were maintained in Dulbecco's modified Eagle's medium (DMEM) (GIBCO, CA) containing 10% fetal bovine serum (FBS) (GIBCO) and 10 ? g/ml gentamicin. All the cultured cells were maintained at 37° C. in 5% CO2/95% air. At 80% confluency, the cells were incubated with serum free DMEM medium for 24 h prior to the incubation with LPS/IFN ? and other chemicals. Assay for NO production. Cells were cultured in 12-well plastic tissue culture plates. After the appropriate treatment, production of NO was determined by an assay of the culture supernatant for nitrite (Green et al., 1982). Briefly, 100 μl of culture supernatant was allowed to react with 100 μl of Griess reagent. The optical density of the assay samples was measured spectrophotometrically at 570 nm. Nitrite concentrations were calculated from a standard curve derived from the reaction of NaNO2 in fresh media. Western Blot Analysis. […] The protein concentration of samples was determined with the detergent compatible protein assay reagent (Bio-Rad Laboratories, CA) using bovine serum albumin (BSA) as the standard. Sample was boiled for 3 min with 0.1 volumes of 10% O-mercaptoethanol and 0.5% bromophenol blue mix. Fifty μg of total cellular protein was resolved by electrophoresis in 8 or 12% polyacrylamide gels, electro-transferred to polyvinylidene difluoride (PVDF) filter and blocked with Tween 20 containing Tris-buffered saline [TBST; 10 mM Trizma base (pH 7.4), 1% Tween 20, and 150 mM NaCl] with 5% skim milk. After incubation with antiserum against iNOS (BD PharMingen, CA), or hRas (Upstate Biotechnology, CA), or phospho-specific MAPK (p42/44) (Signal Transduction), in PVDF buffer for 2 h at room temperature, the filters were washed 3 times with TBST buffer and then incubated with horseradish peroxidase conjugated anti-rabbit or mouse IgG for 1 h. The membranes were autoradiographed by using ECL-plus (Amersham Pharmacia Biotech) after washing with TBST buffer. RT-PCR amplification. […] PCR amplification was conducted in 25 ? l of reaction mixture with 1.0 ? l of cDNA, […] and under the manufacturer's Taq polymerase conditions (Takara, […] Shuzo Co. Ltd, Japan). The sequence of primers used for PCR amplification are as follows; iNOS, (Forward-[NT], Reverse-[NT]), GalT-2 (Forward-[NT], Reverse-[NT]), GAPDH (Forward-[NT], Reverse-[NT]).

Data set [7] can be described thus: Comparison of biology of IFN-β, GA and statin + GSNO (Table 2). An excerpt: FIGS. 28-52 provide additional data that show the effectiveness of statins in treating a variety of inflammatory diseases such as multiple sclerosis, spinal cord injury, stroke, and kinic acid induced seizures. Additionally, Table 2 provides data concerning the treatment of multiple sclerosis (MS) with statins as compared to two other approved MS drugs.

Where [8] appears, read: 10 mg/kg orally, 7 days before KA.
The mark [9] stands for this setting: PD98059 pretreatment 0.5 hr before LPS, 24 hrs.

Turning to “5′-CGCTTGAGCGCAGACATCTT-3′ (chemistry not given here) [antisense DNA oligomer, 20-mer antisense oligonucleotide targeted against rat lactosylceramide synthase (GalT-2)]”, the “iNOS mRNA and protein levels” value in data set [1] (GalT-2 antisense 200 nM oligo, stimulated 2 d after transfection, 6 hrs mRNA, 24 hrs protein) is reported as “reduced significantly”. The “LPS/IFN-mediated NO production” value in data set [1] (GalT-2 antisense 200 nM oligo, stimulated 2 d after transfection, 24 hr) is reported as “reduced significantly”.
Consider `CC(C)c1c(C(=O)Nc2ccccc2)c(-c2ccccc2)c(-c2ccc(F)cc2)n1CC[C@@H](O)C[C@@H](O)CC(=O)O` [Atorvastatin, atorvastatin], for which, in data set [2] (setting [8]), the “apoptosis induced by KA in hippocampus (TUNNEL assay, CA1 and CA3)” value was “inhibited”; the “infiltration of macrophages induced by KA in hippocampus (ED-1)” value is “inhibited”. The “KA-induced neuronal cell death in hippocampus (cresyl violet stain)” value in data set [2] (statin 10 mg/kg orally, 7 days before KA 10 mg/kg i.p.) is on record as “inhibited”. In addition, the “expression of inflammatory genes (TNF-α, IL-1β, and iNOS) induced by KA in hippocampus (real time PCR)” value in data set [2] (statin 10 mg/kg orally, 7 days before KA) was “inhibited”.
`O=C([O-])Cc1ccccc1.[Na+]` [NaPA]: the TNF-α is recorded as 1.7 +/− 0.2 ng/24 h/mg protein in data set [3] (LPS only 18.6 +/− 2.3); 1.3 +/− 0.2 ng/24 h/mg protein in data set [4] (LPS only 14.5 +/− 2.1); 0.4 +/− 0.06 ng/24 h/mg protein in data set [5] (10 μM lovastatin or 5 mM NaPA 8 h, LPS only 5.3 +/− 0.8). Besides, the Il-1β in data set [3] (LPS only 34.6 +/− 4.5) is recorded as 3.1 +/− 0.4 ng/24 h/mg protein; in data set [4] (LPS only 28.2 +/− 3.4) it was 2.4 +/− 0.2 ng/24 h/mg protein; in data set [5] (10 μM lovastatin or 5 mM NaPA 8 h, LPS only 10.4 +/− 1.5) it was 1.1 +/− 0.2 ng/24 h/mg protein. For the same molecule, the NO in data set [3] (LPS only 118.5 +/− 12.5) is listed as 9.5 +/− 0.7 n mol/24 h/mg protein; in data set [4] (LPS only 81.2 +/− 6.9), 6.9 +/− 0.9 n mol/24 h/mg protein; in data set [5] (10 μM lovastatin or 5 mM NaPA 8 h serum free, LPS only 25.3 +/− 3.2), 5.4 +/− 0.6 n mol/24 h/mg protein. In addition, the IL-6 in data set [3] (LPS only 350.0 +/− 27.6) is recorded as 10.2 +/− 1.4 ng/24 h/mg protein; in data set [4] (LPS only 295.6 +/− 33.5) it was 9.3 +/− 1.2 ng/24 h/mg protein; in data set [5] (10 μM lovastatin or 5 mM NaPA 8 h, LPS only 136.5 +/− 16.8), 1.1 +/− 0.2 ng/24 h/mg protein.
Consider `COc1cccc(-c2cc(=O)c3ccccc3o2)c1N` [PD98059], for which, in data set [1] (setting [9]), the NO production result is “inhibition” and the iNOS expression entry is on record as “inhibition”.
Turning to Glucosylceramide [GluCer], the “effect on D-PDMP mediated inhibition of NO production” value in data set [1] (24 hrs) is on record as “did not reverse”. In data set [6], the “effect on D-PDMP inhibition of NO production” value was “no effect”; the “effect on D-PDMP inhibition of iNOS mRNA and protein expression” value is “no effect”.
galactosylceramide [GalCer]: the “effect on D-PDMP mediated inhibition of NO production” value in data set [1] (24 hrs) is “did not reverse”.
For glatiramer acetate [GA], in data set [7], the “Decrease expression of adhesion molecules” value is “No”, the Decrease inflammatory cytokines result is “Yes”, the “Decreased expression of MHCII” value is given as “No” and the “Excludes leukocytes from entering CNS” value is recorded as “No”. In addition, in data set [7], the “Inhibition of MMPs” value is recorded as “No”, the “Inhibition of chemokine expression” value is recorded as “No”, the “Inhibition of clonal expression of co-stimulatory molecules” value is listed as “Yes” and the “Interferences with T-cell activation” value was “Yes”. Besides, in data set [7], the “Leukocyte trafficking across the blood brain barrier (BBB)” value is reported as “No”, the Neuroprotection result is reported as “Yes”, the “Protection of BBB” value was “No” and the “Reduced level of co-stimulatory molecules” value is on record as “No”. For the same molecule, in data set [7], the “Th1 to Th2 deviation” value is reported as “Yes”.
